According to PubChem BioAssay AID1996:
≈ marks a conversion by molar mass, not a printed value. Residues, ends and D or L forms follow the SMILES beside them.

details: buffer; pH 7.4; 200.0 µM

Compound	solubility kinetic
CN(Cc1cccs1)C(=O)CNC(=O)c1ccco1	> 41.7 µg/mL
COc1ccc(C2C(C(C)=O)=C(O)C(=O)N2c2ccc(C)cc2)cc1 (stereo not given)	> 50.6 µg/mL
COc1ccc(Oc2ncccc2NC(=O)c2cccc(C)c2C)cc1	5.9 µg/mL (≈ 16.9 µM)
CCOC(=O)c1ccccc1NC(=O)CSc1nc2ccccc2c(=O)n1CCCN1CCOCC1	18.6 µg/mL (≈ 36.4 µM)
COc1ccccc1C(=O)OCc1cc(=O)n2ccsc2n1	> 47.4 µg/mL
O=C(O)c1ccccc1N(Cc1ccccc1)C(=O)COc1ccccc1	> 54.2 µg/mL
COc1c(Cl)cccc1-c1cn2ccc(C)cc2n1	1.4 µg/mL (≈ 5.13 µM)
Cc1ccc(C(=O)N2CC=C(c3ccccc3)CC2)s1	3.1 µg/mL (≈ 10.9 µM)
COc1ccccc1N(C)S(=O)(=O)c1ccc(Cl)c(C(=O)NCc2ccco2)c1	47.5 µg/mL (≈ 109 µM)
COC(=O)C1=C2SCC(=O)N2C(N)=C(C#N)C1	> 37.7 µg/mL
Cc1ccc(C(=O)C(C)OC(=O)Cc2c[nH]c3ccccc23)cc1 (stereo not given)	7.2 µg/mL (≈ 22.4 µM)
Cc1ccc(/C(O)=C2\C(=O)C(=O)N(C)C2c2ccc(F)cc2)cc1 (stereo not given)	> 48.8 µg/mL
O=C(O)[C@@H]1Cc2ccccc2N1	6.6 µg/mL (≈ 40.4 µM)
O=C(O)c1nccnc1C(=O)NCCc1c[nH]c2ccccc12	42.1 µg/mL (≈ 136 µM)
CC1(C)Cc2c(c(-c3ccccc3)nc3sc4c(=O)[nH]c(=S)[nH]c4c23)CO1	10.5 µg/mL (≈ 26.5 µM)
CC(C)Oc1cccc(C(=O)C2CCCN(S(C)(=O)=O)C2)c1 (stereo not given)	> 48.8 µg/mL
CC(C)Oc1cccc(C(=O)C2CCCN(C(=O)c3ccoc3)C2)c1 (stereo not given)	32.3 µg/mL (≈ 94.6 µM)
CC(=O)NCCNC(=O)c1ccc(-n2c(C)ccc2C)cc1	35.3 µg/mL (≈ 118 µM)
Cc1cc2oc(C(=O)Nc3nonc3C)c(C)c2cc1Cl	< 0.2 µg/mL
Cc1cnc(NC(=O)CC(C)c2ccccc2)s1 (stereo not given)	3 µg/mL (≈ 11.5 µM)
O=C(OCc1nc2ccccc2s1)c1ccc([N+](=O)[O-])o1	1.1 µg/mL (≈ 3.62 µM)
O=C(c1ccccc1)N1CCN(C(=O)c2cccnc2)CC1	> 44.3 µg/mL
Cc1ccc(NC(=O)NCc2ccccn2)cc1Cl	> 41.4 µg/mL
Cc1cc(C)nc(/N=C(\N)Nc2ccc(S(N)(=O)=O)cc2)n1	44.6 µg/mL (≈ 139 µM)

Compound	solubility kinetic
O=C(COC(=O)c1ccccc1O)Nc1cc([N+](=O)[O-])ccc1Cl	< 0.4 µg/mL
CC1CCN(S(=O)(=O)c2ccc3c(c2)n(C)c(=O)n3C)CC1	> 48.5 µg/mL
Cn1c(=O)c2ccccc2n(CC(=O)NCCC2=CCCCC2)c1=O	14.6 µg/mL (≈ 42.8 µM)
O=C(O)c1ccc(NCc2cccs2)cc1	> 35 µg/mL
Cc1cc2cc(CNC(=S)NCc3ccccc3)ccc2n1C	1.8 µg/mL (≈ 5.56 µM)
CC(=O)NCc1ccc(-c2nc3ccccc3s2)cc1	8.6 µg/mL (≈ 30.5 µM)
Cn1c(O)c(/C=C2/C=CC=N2)c(=O)[nH]c1=O	> 32.9 µg/mL
Cl.c1cncc(CNC2CCCC2)c1	> 37.4 µg/mL
Cc1ccc2c(c1)CCCN2C(=O)CSc1ccccc1	19.5 µg/mL (≈ 65.6 µM)
Cc1ccc(-n2c(C)nnc2SC(C)C(=O)N2CCCC2)cc1 (stereo not given)	> 49.6 µg/mL
CN1CCN(C(=O)c2ccc(-c3ccc(Br)cc3)o2)CC1	> 52.4 µg/mL
CCn1c(=O)c2ccccc2n(Cc2ccccc2C)c1=O	3.1 µg/mL (≈ 10.5 µM)
Cc1noc(C)c1C(=O)NCc1ccccc1F	34.7 µg/mL (≈ 140 µM)
O=C(NCC(=O)N1CCN(c2ccccc2F)CC1)c1ccco1	> 49.7 µg/mL
COc1ccc(Nc2nc(OC)nc(OC)n2)cc1	> 39.3 µg/mL
N#Cc1cnc(Sc2ccccc2)nc1	26 µg/mL (≈ 122 µM)
CN(C)/C=C(\C=O)c1onc(-c2ccccc2Cl)c1C#N	44.8 µg/mL (≈ 148 µM)
Cc1ccc(S(=O)(=O)NCc2csc(-c3cccs3)n2)cc1	0.7 µg/mL (≈ 2 µM)
CC1(C)NC(=O)N(CC(=O)OCC(=O)c2ccc(Cl)s2)C1=O	> 51.7 µg/mL
O=C1/C(=C/c2cccs2)SC(=S)N1c1cccc(O)c1	1 µg/mL (≈ 3.13 µM)
CC1CCN(c2nc3ccccn3c(=O)c2C=O)CC1	> 40.7 µg/mL
N/C(=N\OC(=O)Cc1ccc([N+](=O)[O-])cc1)c1ccccn1	26.6 µg/mL (≈ 88.6 µM)
CC1(C)Cc2ccccc2C(C(=O)c2ccccc2)=N1	31 µg/mL (≈ 118 µM)
COc1cccc(NC(=S)Nc2cc(C)cc(C)n2)c1	0.3 µg/mL (≈ 1.04 µM)

Compound	solubility kinetic
O=[N+]([O-])c1ccc(-c2nc(C(Cl)Cl)c3ccccc3n2)cc1	0.5 µg/mL (≈ 1.5 µM)
C=CCn1c(SCC(=O)C23CC4CC(CC(C4)C2)C3)nc(O)cc1=O	> 54.1 µg/mL
CN(C(=O)Nc1cccc(C(F)(F)F)c1)C1CCCCC1	< 0.3 µg/mL
CCCc1cc(=O)[nH]c(SCC(=O)NCCC2=CCCCC2)n1	48.2 µg/mL (≈ 144 µM)
O=C(NCC1CCCO1)c1c(O)nc2sccn2c1=O (stereo not given)	> 44.3 µg/mL
CSc1cccc(NC(=O)COC(=O)c2ccccn2)c1	> 45.4 µg/mL
COc1ccccc1Sc1nc(-c2ccccc2)ncc1OC	1.1 µg/mL (≈ 3.39 µM)
CC(=O)NC(CC(=O)O)c1ccc([N+](=O)[O-])cc1 (stereo not given)	> 37.8 µg/mL
Cc1ccc(NC(=O)CCCN2C(=O)NC(C)(C)C2=O)cc1	38.7 µg/mL (≈ 128 µM)
COc1cccc(CNC(=O)C(Cc2ccccc2)n2cccc2)c1 (stereo not given)	29.7 µg/mL (≈ 88.8 µM)
O=C(NC1CCCCCC1)c1cc2ccccc2oc1=O	3.4 µg/mL (≈ 11.9 µM)
CSc1oc(-c2cccs2)nc1S(=O)(=O)c1ccccc1	3.9 µg/mL (≈ 11.6 µM)
COc1ccc(Cl)cc1NC(=S)NCCO	> 39.1 µg/mL
N#Cc1ccccc1Cn1c(=O)oc2ccccc21	30.9 µg/mL (≈ 123 µM)
Clc1ccc2c(c1)C(N1CCNCC1)=Nc1ccccc1O2	34.4 µg/mL (≈ 110 µM)
CCc1ccc(S(=O)(=O)N2CCN(C(=O)c3cccnc3)CC2)cc1	> 53.9 µg/mL
CCCOc1ccc(C(=O)OCCN(CC)CC)cc1N.Cl	> 49.6 µg/mL
CCOC(=O)c1sc(S(C)=O)c2c1CCc1conc1-2 (stereo not given)	> 46.7 µg/mL
O=C1CSc2ccc(C(=O)O)cc2N1	> 31.4 µg/mL
Cc1ccc(S(=O)(=O)N2CCCCC2C)cc1[N+](=O)[O-] (stereo not given)	24.2 µg/mL (≈ 81.1 µM)
CN1CC(=O)Nc2ccc([N+](=O)[O-])cc2C1=O	> 35.3 µg/mL
Cc1ccc(S(=O)(=O)Nc2ccncc2)c(C)c1.Cl	> 44.8 µg/mL
O=C(COC(=O)C1CCCCC1)NCc1ccc(Cl)cc1	31.7 µg/mL (≈ 102 µM)
COc1ccc(CCNC(=O)COC(=O)c2ccc(S(=O)(=O)N3CCCC3)cc2)cc1OC	7.2 µg/mL (≈ 15.1 µM)

Compound	solubility kinetic
O=C(COC(=O)COc1ccccc1F)Nc1ccc2c(c1)OCO2	> 52.1 µg/mL
CCCOc1ccc(C(=O)NCC(C)(C)N2CCOCC2)cc1	> 48.1 µg/mL
CCOC(=O)c1sc(=NC(=O)c2ccccc2)n(C)c1C	0.4 µg/mL (≈ 1.31 µM)
Cc1cc(C)c(NC(=O)CCCN2CCCC2)c(C)c1	> 41.2 µg/mL
Cc1ccc(C2(c3noc(CN(C)CC4CCCCO4)n3)CCCC2)cc1 (stereo not given)	21.2 µg/mL (≈ 57.4 µM)
COC(=O)c1ccc(N2CCCCC2)c(N)c1	> 35.1 µg/mL
CC(C)(C)c1ccc(NC(=S)NCCc2ccccn2)cc1	5.1 µg/mL (≈ 16.3 µM)
CC(C)Cc1ccc(C(C)C(N)=Nc2ccc(O)cc2)cc1.Cl (stereo not given)	> 49.9 µg/mL
CCOC(=O)C1CCN(S(=O)(=O)c2c(C)noc2C)CC1	26.8 µg/mL (≈ 84.7 µM)
Cc1cccc(C)c1OC(=O)Cc1ccccc1[N+](=O)[O-]	1.8 µg/mL (≈ 6.31 µM)
COc1ccc(Nc2cc(C)c3cc([N+](=O)[O-])ccc3n2)cc1	< 0.2 µg/mL
Cc1nc(-c2cccc(Br)c2)ccc1C(=O)O	43.2 µg/mL (≈ 148 µM)
O=C(OCC(=O)N1CCOCC1)c1cc(=O)[nH]c2ccccc12	> 47.4 µg/mL
CSc1ccc(CN2CCCCCC2)cc1	22.1 µg/mL (≈ 93.9 µM)
COC(=O)c1ccc(NC(=O)c2cc[n+]([O-])cc2)cc1	> 40.8 µg/mL
CC(=O)c1cccc(NC(=O)C2C3C=CC(C3)C2C(=O)O)c1 (stereo not given)	> 44.9 µg/mL
Cc1cccc2c3c([nH]c12)C(=O)CC(C)(C)S3	< 0.5 µg/mL
COc1ccc(C(=O)Nn2c(C)nc3ccccc3c2=O)cc1	> 46.4 µg/mL
CCC1C(=O)N=C(SCC(=O)Nc2nc3ccccc3s2)NC1=O (stereo not given)	> 54.4 µg/mL
c1ccc2c(c1)[nH]c1cnccc12	> 25.2 µg/mL
O=C(NCC(c1ccco1)N1CCCC1)c1cc(=O)[nH]c2ccccc12 (stereo not given)	> 52.7 µg/mL
NS(=O)(=O)c1ccc(NC(=O)CSc2nc3ccccc3c(=O)n2Cc2ccncc2)cc1	8 µg/mL (≈ 16.6 µM)
COc1ccc2cc(C(=O)N3CCN(c4cccc(C)c4C)CC3)[nH]c2c1	1.2 µg/mL (≈ 3.3 µM)
CC(=O)c1cccc(NC2c3ccccc3C(=O)N2Cc2ccco2)c1 (stereo not given)	43.3 µg/mL (≈ 125 µM)

Compound	solubility kinetic
COc1ccc(/C=C/C(=O)OCC(=O)NC2CCCCCCC2)cc1	7.6 µg/mL (≈ 22 µM)
Fc1ccc2nc(N3CCOCC3)sc2c1	> 35.7 µg/mL
CCn1ccnc1CN1CCCC(C(=O)c2cc(C)c(OC)c(C)c2)C1 (stereo not given)	47.6 µg/mL (≈ 134 µM)
COc1ccc(CNc2cc(C)ccn2)cc1	17.4 µg/mL (≈ 76.2 µM)
COC(=O)C(Cc1c[nH]c2ccccc12)NC(=O)C1CC1 (stereo not given)	> 42.9 µg/mL
CCOC(=O)C1CCN(S(=O)(=O)c2c(Cl)ccc3nonc23)CC1	> 56.1 µg/mL
CN(C)CCNC(=O)C(=O)Nc1cc2c3c(c1)CCC(=O)N3CCC2	50.9 µg/mL (≈ 148 µM)
COc1cccc(NC(=S)N2CCC(c3ccc(C)cc3)C2)c1 (stereo not given)	6.9 µg/mL (≈ 21.1 µM)
CC(NC(=O)c1cc(=O)[nH]c2ccccc12)c1ccc(F)cc1F (stereo not given)	2.8 µg/mL (≈ 8.53 µM)
CCOC(=O)N1CCN(C(=O)c2ccc3[nH]c(C)c(C)c3c2)CC1	> 49.4 µg/mL
COC(=O)[C@H](Cc1ccccc1)NC(=O)[C@@H](N)CC(=O)O (H-Asp-Phe-OMe)	> 44.1 µg/mL
COc1ccc(OC(C)C(=O)NC2CCCCCCC2)cc1 (stereo not given)	45.1 µg/mL (≈ 148 µM)
O=C1NC(=O)/C(=C/c2ccccn2)S1	> 30.9 µg/mL
CCCCNC(=O)c1cc2c(=O)n3cccc(C)c3nc2s1	1.3 µg/mL (≈ 4.12 µM)
COc1ccc(CNc2ncnc3c2[nH]c2ccccc23)cc1	0.2 µg/mL (≈ 0.657 µM)
O=C1C=CC(=O)N1	9 µg/mL (≈ 92.7 µM)
O=C(COC(=O)c1ccco1)NCc1ccc(Cl)cc1Cl	14.1 µg/mL (≈ 43 µM)
COc1ccc(N=C2NC(=O)C(CO)(CO)S2)cc1	> 42.3 µg/mL
COc1ccc(CCN2C(=O)CSC2=S)cc1OC	6.1 µg/mL (≈ 20.5 µM)
Cc1cccc(OCCSc2nc3ccccc3n2CCC(=O)O)c1	53.4 µg/mL (≈ 150 µM)
CCN(CC)S(=O)(=O)c1ccc(C(=O)NC2=NCCS2)cc1	2.3 µg/mL (≈ 6.74 µM)
Clc1ccc(NCc2cccnc2)cc1	29.9 µg/mL (≈ 137 µM)
Cc1cccc(NC(=S)NCC(C)CSc2ccc(Cl)cc2)c1 (stereo not given)	< 0.4 µg/mL
CCOc1ccccc1Nc1nnc(SCC(=O)NC2CC2)s1	> 52.6 µg/mL
